Test results from PubChem BioAssay AID806 (SRMLSC, 2007).
Activity calls are given as the source filed them. The rule behind the calls is not given here.

System: virus-infected cells, CPE inhibition, dose response
Experiment: PubChem AID 806
Conditions: for EC90: measured here: EC90 CPE inhibition; for CC50: measured here: cytotoxicity, cell viability IC50

CCN(CC)C(=O)CN1CCN(c2ncccn2)CC1 was tested, and the EC50 was > 60 µM (inactive), the EC90 was greater than 60 µM and the CC50 was greater than 60 µM.
For COc1cccc(C2=NOC(C(=O)Nc3cc(C)nn3-c3ccccc3)C2)c1OC (stereo unspecified), the EC50 was > 60 µM (inactive), the EC90 was greater than 60 µM and the CC50 was greater than 60 µM.
COc1ccc(C(=O)C(CN2CCOCC2)c2ccccc2)cc1 (stereo unspecified) was tested, and the EC50 was > 60 µM (inactive), the EC90 was greater than 60 µM and the CC50 was greater than 60 µM.
In the case of CCN(c1ccccc1)c1ncnc2c1cnn2-c1ccccc1, the EC50 is reported as > 60 µM (inactive), the EC90 is reported as greater than 60 µM and the CC50 is reported as greater than 60 µM.
In the case of COc1cccc(CNC(=O)CCS(=O)(=O)c2cccc3nsnc23)c1, the EC50 is reported as > 60 µM (inactive), the EC90 is reported as greater than 60 µM and the CC50 is reported as greater than 60 µM.
In the case of S=C(Nc1ccccc1)N1CCn2c1nc1ccccc12, the EC50 is reported as > 60 µM (inactive), the EC90 is reported as greater than 60 µM and the CC50 is reported as greater than 60 µM.
In the case of COc1ccc(OC)c(-n2c(SCC(N)=O)nnc2-c2c[nH]c3ccccc23)c1, the EC50 is reported as > 60 µM (inactive), the EC90 is reported as greater than 60 µM and the CC50 is reported as greater than 60 µM.
With COc1ccc(-c2nnc3ccc(SCC(=O)NCc4ccco4)nn23)cc1 the EC50 was > 60 µM (inactive), the EC90 was greater than 60 µM and the CC50 was greater than 60 µM.
COCCNC(=O)C(c1ccccc1)N(C(=O)Cn1nnc2ccccc21)c1cccnc1 (stereo unspecified) was tested, and the EC50 was > 60 µM (inactive), the EC90 was greater than 60 µM and the CC50 was greater than 60 µM.
With COc1ccccc1NC(=O)c1oc2ccc(C)cc2c1C the EC50 was > 60 µM (inactive), the EC90 was greater than 60 µM and the CC50 was greater than 60 µM.
For Cc1cccc(C)c1NC(=O)CCS(=O)(=O)c1cccc2nsnc12, the EC50 was > 60 µM (inactive), the EC90 was greater than 60 µM and the CC50 was greater than 60 µM.
With COc1ccccc1Cn1c(=O)[nH]c2cccnc21 the EC50 was > 60 µM (inactive), the EC90 was greater than 60 µM and the CC50 was greater than 60 µM.
With CCCCC(CC)CNC(=O)CCS(=O)(=O)c1cccc2nsnc12 (stereo unspecified) the EC50 was > 60 µM (inactive), the EC90 was greater than 60 µM and the CC50 was greater than 60 µM.
With CCOc1ccccc1NC(=O)c1ccc(NC(=O)c2ccco2)cc1 the EC50 was > 60 µM (inactive), the EC90 was greater than 60 µM and the CC50 was greater than 60 µM.
In the case of Cc1cc(C(=O)Nc2c(C)n(C)n(-c3ccccc3)c2=O)cs1, the EC50 is reported as > 60 µM (inactive), the EC90 is reported as greater than 60 µM and the CC50 is reported as greater than 60 µM.
For Cc1nc2ccc(NC(=O)C3CCN(S(=O)(=O)c4cccs4)CC3)cc2s1, the EC50 was > 60 µM (inactive), the EC90 was greater than 60 µM and the CC50 was greater than 60 µM.
With O=C(NCc1ccco1)C1CCCCN1S(=O)(=O)c1ccc(F)cc1 (stereo unspecified) the EC50 was > 60 µM (inactive), the EC90 was greater than 60 µM and the CC50 was greater than 60 µM.
For CC(C)(C)OC(=O)NCCc1nnc(SCc2c(Cl)cccc2Cl)o1, the EC50 was > 60 µM (inactive), the EC90 was greater than 60 µM and the CC50 was greater than 60 µM.
For COc1ccc(Cl)cc1NC(=O)CS(=O)(=O)c1cccc2nsnc12, the EC50 was > 60 µM (inactive), the EC90 was greater than 60 µM and the CC50 was greater than 60 µM.
O=C(COc1ccccc1)Nc1ccc(-c2nnc(-c3ccco3)o2)cc1 was tested, and the EC50 was 52 µM (inactive), the EC90 was greater than 60 µM and the CC50 was greater than 60 µM.
With CCOC(=O)CN(C(=O)Cn1nnc2ccccc21)C(C(=O)NCCOC)c1ccccc1 (stereo unspecified) the EC50 was > 60 µM (inactive), the EC90 was greater than 60 µM and the CC50 was greater than 60 µM.
For COc1ccccc1NC(=O)C1CCCCN1S(=O)(=O)c1ccc(F)cc1 (stereo unspecified), the EC50 was > 60 µM (inactive), the EC90 was greater than 60 µM and the CC50 was greater than 60 µM.
In the case of O=C1Cn2c(nc3ccccc32)N1c1ccccc1F, the EC50 is reported as > 60 µM (inactive), the EC90 is reported as greater than 60 µM and the CC50 is reported as greater than 60 µM.
CC(c1ccco1)N(C(=O)COc1ccccc1[N+](=O)[O-])c1ccccn1 (stereo unspecified) was tested, and the EC50 was > 60 µM (inactive), the EC90 was greater than 60 µM and the CC50 was greater than 60 µM.
In the case of Clc1ccc(Nc2ncnc3c2cnn3-c2ccccc2)cc1, the EC50 is reported as > 60 µM (inactive), the EC90 is reported as greater than 60 µM and the CC50 is reported as greater than 60 µM.
For COc1ccc(-c2nc3nc(C)c(Cc4ccccc4)c(=O)n3[nH]2)cc1, the EC50 was > 60 µM (inactive), the EC90 was greater than 60 µM and the CC50 was greater than 60 µM.
In the case of CN(C)CCNc1ncnc2c1sc1nc(N3CCOCC3)c3c(c12)CC(C)(C)SC3, the EC50 is reported as > 60 µM (inactive), the EC90 is reported as greater than 60 µM and the CC50 is reported as 16.3 µM.
